ChEMBL document CHEMBL3611997, “4-Fluoro-3',4',5'-trimethoxychalcone as a new anti-invasive agent. From discovery to initial validation in an in vivo metastasis model” (Eur J Med Chem, 2015)

Columns and labels:
[1] = tested on: MCF10; experiment: Cytotoxicity against human MCF10 cells assessed as reduction of cellular protein content at 0.01 to 100 umol/L after 6 days by SRB assay; type: cell-based; details: mcf10, 144 h
[2] = Permeability across apical to basolateral side of human Caco2 cells assessed as compound recovery at 10 umol/L at pH 7.4; type: ADME, cell-based; details: Caco-2, pH 7.4, read-out: Drug recovery
[3] = organism: Homo sapiens; experiment: Displacement of [3H]-quinuclydinyl benzylate from muscarinic receptor (unknown origin) at 10 umol/L
[4] = tested on: Mus musculus; experiment: Toxicity in human MCF7/6 cells xenografted Swiss nu/nu mouse assessed as macroscopic metastases at 160 mg/kg, ip administered thrice a week measured after 3 months; type: organism-based; details: in vivo, 2191.5 h
[5] = Permeability across basolateral to apical side of human Caco2 cells at 10 umol/L at pH 7.4; type: ADME, cell-based; details: Caco-2, pH 7.4, read-out: permeability
[6] = tested on: Mus musculus; experiment: Toxicity in Swiss nu/nu mouse assessed as histological anomalies in liver at 1.6 to 160 mg/kg, ip administered three times a week for two-week period measured on day 15; type: organism-based; details: in vivo
[7] = tested on: Mus musculus; experiment: Toxicity in Swiss nu/nu mouse assessed as hematological anomalies by measuring creatinine level at 1.6 mg/kg, ip administered three times a week for two-week period measured on day 15 (reference value: 0.29 +/- 0.02 mg/dL); type: organism-based; details: in vivo
[8] = Cytotoxicity against human BLM cells assessed as reduction of mitochondrial activity at 0.01 to 1 umol/L after 24 hrs by MTT assay; type: cell-based
[9] = tested on: MDA-MB-231; experiment: Cytotoxicity against human MDA-MB-231 cells expressing GFP-Luc assessed as reduction of cellular protein content at 0.01 to 100 umol/L after 6 days by SRB assay; type: cell-based; details: mda-mb-231, 144 h
[10] = biological target: hERG (Homo sapiens, UniProt Q12809); experiment: Inhibition of human ERG assessed as reduction of tail current at 0.1 umol/L
Chain of hERG (Q12809 whole entry): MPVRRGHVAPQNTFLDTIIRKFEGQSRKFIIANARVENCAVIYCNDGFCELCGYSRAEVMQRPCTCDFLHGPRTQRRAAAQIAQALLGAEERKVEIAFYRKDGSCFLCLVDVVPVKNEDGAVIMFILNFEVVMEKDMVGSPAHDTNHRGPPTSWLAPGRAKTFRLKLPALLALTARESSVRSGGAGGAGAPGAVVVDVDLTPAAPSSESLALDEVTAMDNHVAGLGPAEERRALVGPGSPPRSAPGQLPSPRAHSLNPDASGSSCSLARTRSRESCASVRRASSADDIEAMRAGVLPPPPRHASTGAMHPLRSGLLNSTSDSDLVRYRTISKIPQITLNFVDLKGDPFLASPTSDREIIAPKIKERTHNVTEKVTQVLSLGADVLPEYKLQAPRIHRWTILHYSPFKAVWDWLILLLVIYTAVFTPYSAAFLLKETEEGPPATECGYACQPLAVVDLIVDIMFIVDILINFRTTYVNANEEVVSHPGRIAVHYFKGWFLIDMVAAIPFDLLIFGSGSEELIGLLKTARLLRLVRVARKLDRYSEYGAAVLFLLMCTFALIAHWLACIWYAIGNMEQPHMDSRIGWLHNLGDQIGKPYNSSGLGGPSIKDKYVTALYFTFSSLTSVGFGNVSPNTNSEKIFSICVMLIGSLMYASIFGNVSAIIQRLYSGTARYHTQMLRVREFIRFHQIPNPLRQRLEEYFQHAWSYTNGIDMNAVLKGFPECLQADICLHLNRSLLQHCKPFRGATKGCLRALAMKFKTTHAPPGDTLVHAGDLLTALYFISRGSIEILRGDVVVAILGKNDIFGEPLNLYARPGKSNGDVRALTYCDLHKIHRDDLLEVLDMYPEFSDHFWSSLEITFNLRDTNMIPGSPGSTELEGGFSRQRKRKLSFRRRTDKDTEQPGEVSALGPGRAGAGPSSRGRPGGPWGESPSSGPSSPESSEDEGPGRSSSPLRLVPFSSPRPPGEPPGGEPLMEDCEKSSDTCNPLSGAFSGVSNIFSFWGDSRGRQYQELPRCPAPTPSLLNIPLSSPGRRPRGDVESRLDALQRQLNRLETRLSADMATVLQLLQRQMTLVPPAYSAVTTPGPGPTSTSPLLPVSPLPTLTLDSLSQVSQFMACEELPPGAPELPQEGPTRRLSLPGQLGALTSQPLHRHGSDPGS

[11] = Intrinsic clearance in Sprague-Dawley rat liver microsomes at 0.1 umol/L; type: ADME; details: read-out: CLH
[12] = tested on: Mus musculus; experiment: Toxicity in Swiss nu/nu mouse assessed as hematological anomalies by measuring WBC count at 160 mg/kg, ip administered three times a week for two-week period measured on day 15 (reference value: 2420 +/- 782 /microL); type: organism-based; details: in vivo
[13] = biological target: T1, CYP1A2 (Homo sapiens, UniProt P05177); experiment: Inhibition of CYP1A2 (unknown origin) at 10 umol/L; type: ADME
T1 sequence (P05177 whole entry): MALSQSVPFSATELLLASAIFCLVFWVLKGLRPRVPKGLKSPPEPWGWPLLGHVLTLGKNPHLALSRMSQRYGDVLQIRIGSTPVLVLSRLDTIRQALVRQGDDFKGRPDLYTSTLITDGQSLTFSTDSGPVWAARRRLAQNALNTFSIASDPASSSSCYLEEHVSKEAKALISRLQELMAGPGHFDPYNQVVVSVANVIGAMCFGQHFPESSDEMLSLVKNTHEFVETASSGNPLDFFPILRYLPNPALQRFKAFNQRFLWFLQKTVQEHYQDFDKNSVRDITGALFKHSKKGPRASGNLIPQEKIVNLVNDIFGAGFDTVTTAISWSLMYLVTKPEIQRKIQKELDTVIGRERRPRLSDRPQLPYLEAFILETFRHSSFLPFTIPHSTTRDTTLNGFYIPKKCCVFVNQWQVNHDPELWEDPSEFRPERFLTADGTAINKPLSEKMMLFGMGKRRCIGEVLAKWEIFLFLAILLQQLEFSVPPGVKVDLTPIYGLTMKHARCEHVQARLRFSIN

[14] = Antiinvasive activity in human in BLM cells assessed as reduction of amount of cells present on filter at 10 umol/L after 24 hrs by matrigel invasion assay (reference value: 100%); type: functional; set-up: scale not given: the % may be the effect or the level left
[15] = Toxicity in human HepG2 cells assessed as cell viability; type: cell-based; details: HepG2 cells
[16] = biological target: Vascular endothelial growth factor receptor 2 (Homo sapiens) (UniProt P35968); experiment: Inhibition of human KDR using and Ulight-CAGAGAIETDKEYYTVKD as substrate at 0.1 umol/L after 1 hr by FRET assay
Chain of Vascular endothelial growth factor receptor 2 (Homo sapiens) (P35968 whole entry): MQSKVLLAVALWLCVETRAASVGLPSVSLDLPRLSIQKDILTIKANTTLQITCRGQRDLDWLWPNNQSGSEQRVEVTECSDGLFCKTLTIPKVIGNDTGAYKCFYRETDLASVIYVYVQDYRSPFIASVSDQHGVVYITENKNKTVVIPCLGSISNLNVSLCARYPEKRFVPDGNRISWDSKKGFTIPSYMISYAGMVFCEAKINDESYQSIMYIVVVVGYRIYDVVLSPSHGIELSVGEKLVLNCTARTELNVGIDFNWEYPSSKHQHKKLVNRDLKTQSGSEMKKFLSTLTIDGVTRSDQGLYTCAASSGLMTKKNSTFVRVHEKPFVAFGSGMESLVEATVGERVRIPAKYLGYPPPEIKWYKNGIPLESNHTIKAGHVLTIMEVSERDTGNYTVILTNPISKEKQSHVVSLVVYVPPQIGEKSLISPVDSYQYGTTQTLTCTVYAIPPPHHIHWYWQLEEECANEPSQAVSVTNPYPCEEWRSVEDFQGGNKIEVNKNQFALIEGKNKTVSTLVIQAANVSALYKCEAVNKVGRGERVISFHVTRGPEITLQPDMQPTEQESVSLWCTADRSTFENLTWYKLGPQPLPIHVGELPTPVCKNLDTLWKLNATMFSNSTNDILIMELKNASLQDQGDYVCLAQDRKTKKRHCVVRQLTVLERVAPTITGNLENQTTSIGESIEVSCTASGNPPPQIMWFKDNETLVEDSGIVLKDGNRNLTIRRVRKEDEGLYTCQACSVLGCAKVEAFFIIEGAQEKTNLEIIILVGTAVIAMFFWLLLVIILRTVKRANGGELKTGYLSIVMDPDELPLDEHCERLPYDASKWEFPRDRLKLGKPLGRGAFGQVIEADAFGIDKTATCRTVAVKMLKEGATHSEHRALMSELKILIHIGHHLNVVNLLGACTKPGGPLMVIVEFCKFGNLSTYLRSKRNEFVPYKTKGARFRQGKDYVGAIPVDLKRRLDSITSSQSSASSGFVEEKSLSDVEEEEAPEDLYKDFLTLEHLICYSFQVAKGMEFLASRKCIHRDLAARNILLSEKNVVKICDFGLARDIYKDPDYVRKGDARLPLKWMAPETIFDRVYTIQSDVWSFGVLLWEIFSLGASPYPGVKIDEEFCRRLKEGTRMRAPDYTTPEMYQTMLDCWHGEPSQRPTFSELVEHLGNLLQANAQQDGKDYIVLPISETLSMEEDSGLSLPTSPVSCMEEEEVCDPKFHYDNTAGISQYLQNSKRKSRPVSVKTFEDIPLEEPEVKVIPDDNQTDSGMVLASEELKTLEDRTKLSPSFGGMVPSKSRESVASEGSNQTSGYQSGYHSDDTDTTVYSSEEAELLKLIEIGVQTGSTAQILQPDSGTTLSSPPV

[17] = tested on: Mus musculus; experiment: Toxicity in Swiss nu/nu mouse assessed as hematological anomalies by measuring WBC count at 16 mg/kg, ip administered three times a week for two-week period measured on day 15 (reference value: 2420 +/- 782 /microL); type: organism-based; details: in vivo
[18] = Octanol-phosphate buffer partition coefficient, log D of the compound at 100 umol/L at pH 7.4; type: physicochemical
[19] = Antiinvasive activity in human in BLM cells assessed as reduction of amount of cells present on filter at 100 umol/L after 24 hrs by matrigel invasion assay (reference value: 100%); type: functional; set-up: scale not given: the % may be the effect or the level left
[20] = Intrinsic clearance in Sprague-Dawley rat liver S9 fraction at 0.1 umol/L; type: ADME, subcellular; details: read-out: CLH
[21] = biological target: CYP2D6 (Homo sapiens, UniProt P10635); experiment: Inhibition of CYP2D6 (unknown origin) at 10 umol/L; type: ADME
Chain of CYP2D6 (P10635 whole entry): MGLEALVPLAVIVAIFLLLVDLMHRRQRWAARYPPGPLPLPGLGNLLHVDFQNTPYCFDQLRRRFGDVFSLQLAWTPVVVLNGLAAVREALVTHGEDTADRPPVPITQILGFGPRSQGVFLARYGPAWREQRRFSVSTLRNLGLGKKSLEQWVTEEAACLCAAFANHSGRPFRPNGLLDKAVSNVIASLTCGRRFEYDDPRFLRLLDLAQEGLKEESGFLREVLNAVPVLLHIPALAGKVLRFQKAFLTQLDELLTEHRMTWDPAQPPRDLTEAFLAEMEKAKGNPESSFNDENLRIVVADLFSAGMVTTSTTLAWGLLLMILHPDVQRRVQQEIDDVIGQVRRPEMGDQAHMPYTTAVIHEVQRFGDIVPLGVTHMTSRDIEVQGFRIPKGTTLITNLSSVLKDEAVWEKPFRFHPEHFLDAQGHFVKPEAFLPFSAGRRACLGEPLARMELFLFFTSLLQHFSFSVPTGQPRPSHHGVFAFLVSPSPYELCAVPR

[22] = tested on: MDA-MB-231; experiment: Cytotoxicity against human MDA-MB-231 cells expressing GFP assessed as reduction of mitochondrial activity at 0.01 to 100 umol/L after 6 days by MTT assay; type: cell-based; details: mda-mb-231, 144 h
[23] = biological target: Tubulin (Sus scrofa) (UniProt P02554+P02550); experiment: Inhibition of porcine brain tubulin polymerization assessed as microtubule assembly at 1 umol/L after 15 mins by DAPI staining
Chain of Tubulin (Sus scrofa) (P02550 whole entry, looked up): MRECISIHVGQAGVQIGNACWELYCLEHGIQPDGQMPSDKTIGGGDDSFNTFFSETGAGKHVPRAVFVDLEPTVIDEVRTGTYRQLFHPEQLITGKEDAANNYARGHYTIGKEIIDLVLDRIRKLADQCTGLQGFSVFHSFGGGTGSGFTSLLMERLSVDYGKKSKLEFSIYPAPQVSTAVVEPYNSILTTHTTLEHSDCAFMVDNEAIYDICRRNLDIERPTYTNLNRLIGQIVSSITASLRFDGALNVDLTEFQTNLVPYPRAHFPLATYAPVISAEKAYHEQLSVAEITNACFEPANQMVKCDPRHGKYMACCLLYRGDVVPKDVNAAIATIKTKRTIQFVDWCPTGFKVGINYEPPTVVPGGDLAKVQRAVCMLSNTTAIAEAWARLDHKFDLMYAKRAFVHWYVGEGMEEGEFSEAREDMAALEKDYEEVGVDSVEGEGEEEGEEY
Chain of Tubulin (Sus scrofa) (P02554 whole entry, looked up): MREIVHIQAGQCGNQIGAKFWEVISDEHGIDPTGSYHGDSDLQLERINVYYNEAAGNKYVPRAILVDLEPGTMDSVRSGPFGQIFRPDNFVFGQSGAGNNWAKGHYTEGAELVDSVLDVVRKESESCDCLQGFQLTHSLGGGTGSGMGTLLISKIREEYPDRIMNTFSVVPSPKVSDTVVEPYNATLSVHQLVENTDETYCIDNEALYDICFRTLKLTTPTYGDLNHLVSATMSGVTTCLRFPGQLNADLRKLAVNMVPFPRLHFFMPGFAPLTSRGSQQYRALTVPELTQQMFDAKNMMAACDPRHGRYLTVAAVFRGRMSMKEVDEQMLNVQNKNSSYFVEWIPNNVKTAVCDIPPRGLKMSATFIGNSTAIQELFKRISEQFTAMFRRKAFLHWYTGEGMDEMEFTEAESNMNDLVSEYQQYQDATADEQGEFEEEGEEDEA

[24] = Protein binding in human plasma at 10 umol/L; type: ADME, cell-free; details: read-out: PPB (converted)
[25] = tested on: Mus musculus; experiment: Toxicity in Swiss nu/nu mouse assessed as hematological anomalies by measuring AST level at 16 mg/kg, ip administered three times a week for two-week period measured on day 15 (reference value: 254.2 +/- 144.6 IU/L); type: organism-based; details: in vivo
[26] = tested on: Mus musculus; experiment: Toxicity in Swiss nu/nu mouse assessed as hematological anomalies by measuring WBC count at 1.6 mg/kg, ip administered three times a week for two-week period measured on day 15 (reference value: 2420 +/- 782 /microL); type: organism-based; details: in vivo
[27] = tested on: Mus musculus; experiment: Toxicity in Swiss nu/nu mouse assessed as hematological anomalies by measuring creatinine level at 16 mg/kg, ip administered three times a week for two-week period measured on day 15 (reference value: 0.29 +/- 0.02 mg/dL); type: organism-based; details: in vivo
[28] = Antiinvasive activity in human MCF7/6 cells assessed as Cmin for progressive occupation of chicken precultured heart tissue fragments after 8 days by chick heart invasion assay; type: functional
[29] = Half life of the compound in PBS at pH 7.4 at 1 umol/L; type: ADME

In the case of `COc1cc(C(=O)/C=C/c2ccc(F)cc2)cc(OC)c1OC`, the Activity [1] is reported as “Non-toxic”, the recovery at 10 µM [2] is reported as 17% and the inhibition [3] is reported as -5.1%. The Activity [4] was “Non-toxic”, the Papp B→A at 10 µM [5] was 4.9 ×10⁻⁶ cm/s and the Activity [6] was “Non-toxic”. For the same molecule, the Activity [7] was 0.22 mg/dL, the Activity [8] was “Non-toxic” and the Activity [9] was “Non-toxic”. For the same molecule, the inhibition at 0.1 µM [10] was 3.7%, the microsomal CLint at 0.1 µM [11] was 339 µL/min/mg and the Activity [12] was 3180 µL⁻¹. It also gave an inhibition at 10 µM [13] of 35.7%, an Activity [14] of 7% and an EC50 [15] of 10 µM. It also gave an inhibition [16] of -3.5%, an Activity [17] of 5960 µL⁻¹ and a logD at 100 µM [18] of 3.85. The Activity [19] was 2%, the microsomal CLint at 0.1 µM [20] was 116 µL/min/mg and the inhibition at 10 µM [21] was 18.9%. For the same molecule, the Activity [22] was “Non-toxic”, the inhibition [23] was -0.8% and the fraction unbound at 10 µM [24] was 0.01. For the same molecule, the Activity [25] was 167.5 IU/L, the Activity [26] was 4400 µL⁻¹ and the Activity [27] was 0.32 mg/dL. The Cmin [28] was 0.01 µmol/L and the half-life at 1 µM [29] was > 4 h.
